Reference: US20240181125A1, “COMPOSITIONS AND METHODS FOR SCARLESS WOUND HEALING IN DIABETES” (Washington University, priority 2022, published 2024)
Bridge positions count the residues as written; N and C are the ends. Peptide text beside a SMILES is read from it. * marks the point of attachment. FITC = O=C1OC2(c3ccc(O)cc3Oc3cc(O)ccc32)c2ccc(NC(=S)*)cc21

How the values were obtained:
HAECs = test: Cell proliferation (dsDNA) under high glucose and TGFβ1, HAEC; format: cell-based, human; conditions: high glucose, TGFβ1 10 ng/ml, PTβR2I 10 μg/mL; p<0.05
Procedure: HDFs, HaCaTs, and HAECs were seeded in 96-well plates at respective densities of 1.5×10^4 cells/mL, 2×10^4 cells/mL, and 2×10^4 cells/mL. High glucose (4.5 g/L) basal medium with 1% P/S was used for the culture. After 24 hours, TGFβ1 (10 ng/ml) or TGFβ1 (10 ng/ml)/PTβR2I (10 μg/mL) was added to the medium. The culture continued for three days. The medium was then replaced by papain solution and incubated at 60° C. for 24 hours. The dsDNA content was tested using a Quant-iT™ PicoGreen dsDNA Assay Kit (Invitrogen).

[1] = In vitro release of peptide from hydrogel; format: physicochemical; conditions: 21-day study, 37° C., DPBS; loadings 10, 20, 50 μg/mL
Procedure: To characterize the ECG release properties of the NIPAAm-based hydrogels disclosed herein, the following experiments were conducted. Hydrogel samples were synthesized with varying levels of ECG loading: 10 μg/mL, 20 μg/mL, and 50 μg/mL. The cumulative release of ECG from the hydrogel samples was assessed over a three-week period.
Wound dressings were fabricated by encapsulating PTβR2I in the hydrogel solution at 4° C. Briefly, PTβR2I solution was mixed with 6 wt. % hydrogel solution to reach final PTβR2I concentrations of 10 μg/mL, 20 μg/mL and 50 μg/mL. The mixtures were stirred at 4° C. for 12 hours. To determine PTβR2I release kinetics, the mixtures were first incubated at 37° C. to gel. After 1 hour, the supernatant was replaced by a release medium (DPBS with 1% P/S). The medium was then collected at pre-determined time points for 21 days, and a fresh release medium was added after each collection. The concentration of the released PTβR2I was determined by measuring the fluorescence intensity and calculating the corresponding concentration using a standard curve. The bioactivity of the released PTβR2I was evaluated by its ability to bind to the TβR2 on the HDFs. […] After 2 hours of incubation, the cells were washed three times with DPBS, and the fluorescence intensity was measured using a microplate reader (excitation/emission=485/535 nm).

[2] = system: THP-1-derived CD86+M1 macrophages; test: mRNA expression (RT-PCR), M1 macrophages; format: cell-based, human; conditions: high glucose and TGFβ1
Procedure: Macrophages were derived from THP-1, a human monocytic cell line (ATCC). THP-1 cells were treated with 100 ng/ml phorbol 12-myristate 13-acetate (PMA, Millipore-Sigma, P1585) for 48 hours, followed by 24 hours in RPMI 1640 medium (ATCC) with 10% FBS and 1% P/S. To induce differentiation into M1 macrophages, the cells were treated with 100 pg/mL lipopolysaccharide (LPS, Millipore-Sigma) and 20 ng/ml interferon-gamma (IFN-γ, Millipore-Sigma) for 48 hours.
(§1) To determine the mRNA expression of the cells (HDFs, HaCaTs, and HAECs) treated with TGFβ1 (10 ng/ml) or TGFβ1 (10 ng/ml)/PTβR2I (10 μg/mL) under high glucose conditions, RNA was extracted using Trizol (Invitrogen) and reverse transcribed using a cDNA synthesis kit (Applied Biosystems). Gene expression was performed by real-time RT-PCR, using Maxima SYBR Green/Fluorescein Master Mix (Thermofisher) and selected primer pairs, shown in Table 1 below. β-actin served as the housekeeping gene. The ΔΔCt method was used for data analysis.

HDFs = test: mRNA expression (RT-PCR), HDFs; format: cell-based, human; conditions: high glucose and TGFβ1
Procedure: as §1

TβR2 on the HDFs = molecular target: T1, TβR2 on the HDFs (Homo sapiens, UniProt P37173); test: Bioactivity of released PTβR2I (cell binding assay on HDFs); format: cell-based; conditions: released on days 3, 8, 14; loadings 10, 20, 50 μg/mL
T1 construct: host or cells: human dermal fibroblasts (HDFs)
T1 sequence (P37173 23-567): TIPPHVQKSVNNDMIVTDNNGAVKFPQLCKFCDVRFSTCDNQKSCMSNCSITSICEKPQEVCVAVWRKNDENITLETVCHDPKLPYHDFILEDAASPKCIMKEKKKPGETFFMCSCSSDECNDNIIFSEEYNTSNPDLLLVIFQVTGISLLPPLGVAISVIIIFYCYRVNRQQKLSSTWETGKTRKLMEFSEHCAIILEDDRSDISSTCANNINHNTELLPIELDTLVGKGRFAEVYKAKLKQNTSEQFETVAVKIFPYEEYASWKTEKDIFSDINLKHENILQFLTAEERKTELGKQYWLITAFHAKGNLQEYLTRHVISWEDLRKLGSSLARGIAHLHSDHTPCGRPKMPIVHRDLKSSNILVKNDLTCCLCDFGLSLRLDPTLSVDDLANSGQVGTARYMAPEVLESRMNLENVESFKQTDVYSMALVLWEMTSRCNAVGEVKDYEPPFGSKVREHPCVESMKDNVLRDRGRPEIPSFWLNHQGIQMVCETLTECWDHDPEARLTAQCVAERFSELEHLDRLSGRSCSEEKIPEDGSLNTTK
Procedure: Wound dressings were fabricated by encapsulating PTβR2I in the hydrogel solution at 4° C. Briefly, PTβR2I solution was mixed with 6 wt. % hydrogel solution to reach final PTβR2I concentrations of 10 μg/mL, 20 μg/mL and 50 μg/mL. The mixtures were stirred at 4° C. for 12 hours. To determine PTβR2I release kinetics, the mixtures were first incubated at 37° C. to gel. After 1 hour, the supernatant was replaced by a release medium (DPBS with 1% P/S). The medium was then collected at pre-determined time points for 21 days, and a fresh release medium was added after each collection. The concentration of the released PTβR2I was determined by measuring the fluorescence intensity and calculating the corresponding concentration using a standard curve. The bioactivity of the released PTβR2I was evaluated by its ability to bind to the TβR2 on the HDFs. The collected released medium was added to the culture medium of HDFs that were seeded in a 96-well plate. After 2 hours of incubation, the cells were washed three times with DPBS, and the fluorescence intensity was measured using a microplate reader (excitation/emission=485/535 nm).

CC(C)C[C@@H]1NC(=O)CNC(=O)[C@@H](NC(=O)[C@@H](N)CCC(=O)O)CSSC[C@@H](C(=O)N[C@@H](CCCCNC(=S)Nc2ccc3c(c2)C(=O)OC32c3ccc(O)cc3Oc3cc(O)ccc32)C(=O)O)NC(=O)[C@H](CC(C)C)NC(=O)[C@H](CCCNC(=N)N)NC(=O)[C@H](Cc2c[nH]c3ccccc23)NC(=O)[C@H](C(C)C)NC(=O)[C@H](CCCNC(=N)N)NC(=O)[C@H](CC(=O)O)NC(=O)[C@@H]2CCCN2C(=O)[C@H](CCCNC(=N)N)NC(=O)CNC(=O)[C@H](C(C)C)NC(=O)[C@@H]2CCCN2C(=O)[C@H](CC(C)C)NC1=O [PTβR2I, ECGLLPVGRPDRVWRLCK-FITC] (H-ECGLLPVGRPDRVWRLCK(FITC)-OH; disulfide 2-17; N-terminus and C-terminus assumed)
proliferation (dsDNA, day 3) (HAECs): Significantly improved proliferation | release profile from wound dressing [1]: initial burst release was observed on the first day, followed by a slower and sustained release until day 21 | IL6 mRNA expression [2]: significantly reduced | PDGFBB gene expression [2]: significantly enhanced | IGF1 expression (HDFs): significantly upregulated | IL1B mRNA expression (HDFs): significantly reduced | IL6 mRNA expression (HDFs): significantly reduced | TNFA mRNA expression (HDFs): significantly reduced | bioactivity of released PTβR2I (TβR2 on the HDFs): remained bioactive
